Experimental findings from ChEMBL document CHEMBL3988442, “University of Dundee, Small-Polar-MMV Screening Library” (2021) are described below.

Values joined by “and” are separate entries in the source; they are usually repeats but may differ in a detail not shown here. Equal values may be shown once.

For this experiment, the target named is Polyketide synthase Pks13 (Mycobacterium tuberculosis (strain ATCC 25618 / H37Rv), UniProt I6X8D2). The experiment can be described thus: Mycobacterium tuberculosis Polyketide synthase 13 Thioesterase (PKS13). In kind it is functional.
Sequence of Polyketide synthase Pks13 (I6X8D2 whole entry): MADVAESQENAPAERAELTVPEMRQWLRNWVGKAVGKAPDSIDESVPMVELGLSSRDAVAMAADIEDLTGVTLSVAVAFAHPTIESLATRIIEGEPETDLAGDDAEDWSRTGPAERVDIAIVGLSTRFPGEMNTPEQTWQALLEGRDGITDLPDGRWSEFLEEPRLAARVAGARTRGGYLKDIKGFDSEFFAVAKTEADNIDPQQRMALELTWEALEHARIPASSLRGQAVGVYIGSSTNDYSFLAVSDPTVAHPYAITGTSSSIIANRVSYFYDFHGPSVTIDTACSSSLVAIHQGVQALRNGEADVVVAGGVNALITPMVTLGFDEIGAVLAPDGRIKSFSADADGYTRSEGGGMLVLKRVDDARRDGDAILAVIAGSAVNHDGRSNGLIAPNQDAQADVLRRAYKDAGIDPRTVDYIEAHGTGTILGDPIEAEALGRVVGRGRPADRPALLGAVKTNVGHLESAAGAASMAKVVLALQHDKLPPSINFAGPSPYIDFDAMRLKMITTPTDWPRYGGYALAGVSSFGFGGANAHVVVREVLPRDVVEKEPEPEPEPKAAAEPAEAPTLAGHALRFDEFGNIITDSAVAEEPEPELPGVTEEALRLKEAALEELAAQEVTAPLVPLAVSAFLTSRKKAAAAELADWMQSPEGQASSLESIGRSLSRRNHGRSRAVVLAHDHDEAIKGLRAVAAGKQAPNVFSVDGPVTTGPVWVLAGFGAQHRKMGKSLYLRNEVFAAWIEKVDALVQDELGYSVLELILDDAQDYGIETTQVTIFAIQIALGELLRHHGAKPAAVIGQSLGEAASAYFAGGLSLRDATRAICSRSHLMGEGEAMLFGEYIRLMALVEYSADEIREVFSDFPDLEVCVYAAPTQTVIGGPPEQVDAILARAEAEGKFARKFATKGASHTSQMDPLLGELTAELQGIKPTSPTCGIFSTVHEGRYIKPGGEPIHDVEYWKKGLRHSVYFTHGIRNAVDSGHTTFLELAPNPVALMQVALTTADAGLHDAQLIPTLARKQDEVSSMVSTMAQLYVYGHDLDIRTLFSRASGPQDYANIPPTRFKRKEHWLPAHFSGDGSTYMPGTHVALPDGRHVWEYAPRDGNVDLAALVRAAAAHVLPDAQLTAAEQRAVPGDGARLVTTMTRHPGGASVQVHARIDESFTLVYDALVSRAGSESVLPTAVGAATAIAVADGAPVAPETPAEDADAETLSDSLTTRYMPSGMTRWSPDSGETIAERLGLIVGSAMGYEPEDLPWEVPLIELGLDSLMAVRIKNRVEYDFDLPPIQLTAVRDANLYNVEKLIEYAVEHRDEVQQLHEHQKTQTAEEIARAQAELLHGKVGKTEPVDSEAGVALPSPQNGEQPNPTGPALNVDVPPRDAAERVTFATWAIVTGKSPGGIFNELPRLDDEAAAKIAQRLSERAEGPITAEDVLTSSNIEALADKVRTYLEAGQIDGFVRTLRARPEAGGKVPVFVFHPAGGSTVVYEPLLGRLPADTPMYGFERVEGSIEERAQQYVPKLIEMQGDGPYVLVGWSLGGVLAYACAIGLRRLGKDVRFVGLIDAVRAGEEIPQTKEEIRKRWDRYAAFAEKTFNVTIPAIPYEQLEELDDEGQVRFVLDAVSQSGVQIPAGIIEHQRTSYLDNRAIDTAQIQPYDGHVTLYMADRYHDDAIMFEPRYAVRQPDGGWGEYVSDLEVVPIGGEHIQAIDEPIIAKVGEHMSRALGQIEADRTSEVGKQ
For `COc1cccc(-c2cc(NCC(=O)O)nc3[nH]ccc23)n1`, the IC50 was 29.9 µM and 35.7 µM.
Under `c1ccc(CCCN2CC[C@H](c3nnc(-c4ccccc4)o3)C2)cc1` stands more than 100 µM.
The same measure for `Cn1ccnc1C(=O)N1C[C@@H]2CCN(c3cnccn3)C[C@@H]2C1`: more than 100 µM.
In turn, `CCNc1ncc(C(=O)N2CCc3c(nc(C)nc3N(C)C)C2)cn1` gave an IC50 of more than 100 µM.
The same measure for `Cc1cccc(COc2ccc(NC(=O)C(C)NC(N)=O)c(C)c2)c1` (centres undefined): more than 100 µM; for `CC(=O)N1CCC(NC(=O)c2cc(Cl)ccc2O)CC1`: > 100 µM and 80.2 µM; for `N#Cc1cccnc1N1CCCC(CO)(Cc2cccc(Cl)c2)C1` (centres undefined): 26.7 µM and 23.5 µM.
Under `O=C(Cc1cccc(F)c1)N1CCc2ncnc(NC3CC3)c2CC1` stands more than 100 µM.
Under `COc1cccc(-c2noc(-c3ccc(NCC(C)C)nc3)n2)c1OC` stands 15.7 µM and 26.8 µM.
`Cc1ncc(CNCC(C)O)c2cc(C(=O)c3ccc(Br)cc3)oc12` (centres undefined): the IC50 is more than 100 µM.
Under `CC(C)(C)OCCN1CCCC1c1nc(Cc2ccc(F)cc2)no1` (centres undefined) stands more than 100 µM.
For `O=C(O)[C@]12CCCN(Cc3ccccn3)[C@@H]1CCN(c1cnccn1)C2`, the IC50 was more than 100 µM.
As for `Cn1cc(-c2ncc3c(c2C(=O)O)CCN(CC2CCOC2)C3)cn1` (centres undefined), the IC50 was more than 100 µM.
With `CCn1cc(-c2cc(C(F)F)n3nc(CC(=O)O)nc3n2)cn1`, the IC50 was 15.7 µM and 16.4 µM.
For `Cc1ccc2nc(C(=O)N(C)[C@@H]3CC[C@@H](N4CCCC4)[C@@H]3O)cn2c1`, the IC50 is more than 100 µM.
`COc1cccc(CN2CCC3(CCN(c4ncc(C)cn4)CC3)C2)c1` had an IC50 of more than 100 µM.
Under `CS(=O)(=O)CCCSc1n[nH]c(-c2ccc3c(c2)CCC3)n1` stands 5.44 µM and 19.5 µM; under `O=C1CC(c2ccc(F)c(F)c2)c2snc(C(=O)O)c2N1` (centres undefined), more than 100 µM.
Under `Cc1cccc(-n2nnnc2C(C)(C)Nc2ccccc2C)c1` stands 13.8 µM and 11.7 µM; under `Cc1cc2c(N)nc(=O)n(CC(=O)Nc3ccccc3)c2s1`, more than 100 µM; under `Cc1nn(C)cc1-c1ccnc(N(C)Cc2ccoc2)n1`, more than 100 µM.
Under `CN(Cc1ccc(N2CCCCC2)cc1)Cc1noc(C(C)(C)C)n1` stands more than 100 µM.
Consider `Cc1c(C(=O)N2CCOCC2)nnn1-c1ccc2ncccc2c1`, for which the IC50 was more than 100 µM.
Under `COc1cc2nc(NCc3cc(C)on3)nc(N)c2cc1OC` stands > 100 µM and 89.5 µM; under `Cn1cc(-c2ccnc(NCC3CCN(Cc4ccccc4)C3)n2)cn1` (centres undefined), > 100 µM and 60.6 µM; under `CCOCCN1Cc2ncn(C)c2C(COCC2CCOCC2)C1` (centres undefined), more than 100 µM.
The compound `CCN1CCC(N[C@@H]2CC[C@@H]2NC(=O)Cc2csc(C)n2)CC1` showed an IC50 of more than 100 µM.
The same measure for `Cc1cccc(-c2ccc(C(=O)NCC(C)(C)C(N)=O)c(=O)[nH]2)c1`: 25 µM and 32 µM.
The same measure for `CC(NC(=O)NCC(C)(C)C(N)=O)c1nc(-c2ccccc2)cs1` (centres undefined): more than 100 µM.
The same measure for `O=C(c1cnccn1)N1C[C@@H]2CC[C@H](C1)N(S(=O)(=O)c1cccnc1)C2`: more than 100 µM; for `Cc1nc(CN(C)C(=O)NC(C)c2ccc3c(c2)OCCO3)cs1` (centres undefined): more than 100 µM; for `Cn1ccc(C(=O)NCc2cccc(CN3CCCC3)c2)cc1=O`: more than 100 µM.
In the case of `O=C(O)C1c2nc[nH]c2CCN1Cc1ccccc1-c1ccccc1` (centres undefined), the IC50 was more than 100 µM.
Under `CC(C)N1Cc2cccc(NCC(=O)N(C)C3CCCCC3)c2C1` stands more than 100 µM; under `CCc1nnc(CN2CCOC(Cn3cc(C)cn3)C2)o1` (centres undefined), more than 100 µM.
Under `Cc1cc(S(=O)(=O)Nc2cccc(OC(F)F)c2)sc1C(=O)O` stands 16.4 µM and 3.37 µM.
The same measure for `COCCN1CCCC2(CCN(c3nccnc3N(C)C)C2)C1=O` (centres undefined): more than 100 µM; for `Cn1cc(I)c(C(=O)NCCCn2cc(Br)cn2)n1`: 9.34 µM and 48.9 µM.
`CC(NC(=O)CN(C)S(C)(=O)=O)c1nnc2n1CCCCC2` (centres undefined) had an IC50 of more than 100 µM.
As to `Cc1ccc(C)c(OC2CCN(C(=O)CNc3ccccc3Cl)CC2)c1`, the IC50 is 10.7 µM and 12.7 µM.
Under `CCOCCN1CCN([C@@H]2c3ccccc3C3(CCNCC3)[C@H]2O)CC1` stands more than 100 µM.
For `O=S(=O)(c1c(N2CCCCC2)ccc2nonc12)N1CCCCC1`, the IC50 was 26.1 µM and 29.2 µM.
The same measure for `N#Cc1cccc(N2CCCC(CO)(CCOc3ccccc3)C2)n1` (centres undefined): 34.6 µM and 6.67 µM.
Under `CCN(CC)C(=O)c1nnc2ccc(N3CCOCC3)cc2n1` stands 6.1 µM and 15.9 µM.
The same measure for `Cc1ccc2cc(CNCCCN3CCOCC3)c(=O)[nH]c2c1C`: more than 100 µM; for `COC(=O)c1sc2cccc(F)c2c1CNC(=O)C1CCOC1` (centres undefined): more than 100 µM.
For `Cn1cc(-c2cc(C(F)F)n3nc(CCC(=O)O)nc3n2)cn1`, the IC50 is 12 µM and 19.8 µM.
The same measure for `Cc1cccc(C(C)CNS(=O)(=O)CCCC#N)c1` (centres undefined): more than 100 µM.
Under `CCC(C)Nc1ccc(-c2nc(-c3cccc(OC)c3OC)no2)cn1` (centres undefined) stands 28.7 µM and 14 µM; under `CCOCC1CCCN(C(=O)NCc2ccc(-c3ccn[nH]3)cc2)C1` (centres undefined), more than 100 µM.
Under `OCC1(CCOc2ccccc2)CCCN(c2ccc(Cl)cn2)C1` (centres undefined) stands 29 µM and 32.3 µM.
The compound `O=C(c1ccco1)N1CCO[C@@H]2CN(c3ccccn3)CC[C@@H]2C1` gave an IC50 of more than 100 µM.
The same measure for `CN(C)c1nccc(-c2c[nH][nH]c2=O)n1`: more than 100 µM.
The same measure for `CC(C)c1nc(CN2CCc3onc(-c4cccc(F)c4)c3C2)no1`: more than 100 µM; for `O=C(CCc1cc(Cl)no1)N1CCC(c2cc3ncccc3cn2)CC1`: more than 100 µM; for `O=C1CC(NCc2cnc(N3CCCC3)nc2)CN1c1ccccc1` (centres undefined): more than 100 µM.
Take `Cc1cnn(CC2CCCN2Cc2cc(=O)n3cc(C)ccc3n2)c1` (centres undefined): the IC50 is > 100 µM and 95.9 µM.
As for `Cn1ccc(C(=O)NCc2cccc(NC(=O)C3CCC3)c2)cc1=O`, the IC50 was more than 100 µM.
Under `CCOCCCNC(=O)c1cn(C(C)(C)C)c2ncccc12` stands more than 100 µM; under `Cn1nc(C2CCCN2)c2c(C(=O)NCC(F)(F)F)cc(C3CC3)nc21` (centres undefined), more than 100 µM; under `Cc1cccn2c(=O)cc(CSCC(=O)Nc3nnc(C(C)C)s3)nc12`, more than 100 µM.
Consider `Cc1ccc(C(=O)N2CCN(c3ncnc4nc(N)ccc34)CC2)o1`, for which the IC50 is more than 100 µM.
Under `Cc1ccnc(OC[C@]23COC[C@H]2CN(C(=O)c2ncccn2)C3)n1` stands more than 100 µM; under `O=c1[nH]c(NC2CCCC2)nc2nccc(-c3cccs3)c12`, 8.33 µM and 21.7 µM.
The same measure for `CC1(C(=O)NCc2cccnc2Oc2ccc(F)c(F)c2)CCCNC1` (centres undefined): more than 100 µM; for `CS(=O)(=O)NCc1cc(-c2cc(F)cc(F)c2)nc(N2CC[C@H](O)C2)n1`: more than 100 µM.
Under `CCOCC1CN(C(=O)c2cccs2)Cc2cnn(CC3CC3)c21` (centres undefined) stands more than 100 µM; under `Cc1cnn(CC(C)NCC(=O)NCCOc2ccccc2)c1` (centres undefined), more than 100 µM.
As to `Cc1cc(-c2cnn(CCNC(=O)c3snnc3C)c2C2CC2)on1`, the IC50 was more than 100 µM.
The same measure for `CSc1ccc2cc(CN(C)CCO)c(=O)[nH]c2c1`: 31.4 µM; for `N#Cc1ccc(C(=O)O)nc1/C=C/c1cccc(Cl)c1`: more than 100 µM.
Under `CCc1ccc(S(=O)(=O)NCC2CCN(c3cnccn3)CC2)s1` stands 18.4 µM and 29.5 µM; under `Cc1nc(-c2ccc(Cl)s2)sc1C(=O)NCCS(N)(=O)=O`, 33.3 µM and 21 µM.
Under `NC(=O)CCSc1ccccc1NCc1ccc(Cl)s1` stands 6.92 µM and 6.81 µM; under `Cc1nc(-c2ccc(Cl)s2)sc1C(=O)N(C)CC(N)=O`, 30.9 µM and 43.8 µM.
`O=C(O)c1csc(S(=O)(=O)Nc2cccc(OCC(F)(F)F)c2)c1`: the IC50 is 36 µM and 20.4 µM.
Under `N#Cc1cccc(N2CCC(CO)(CCCc3ccccc3)CC2)n1` stands > 18.6 µM and 25.5 µM; under `CN(C)CC(=O)N1Cc2nc(C(=O)NCc3ccccc3)oc2C1`, more than 100 µM.
In the case of `O=C(C1CC1)N1CCc2ccccc2C12CCNCC2`, the IC50 was more than 100 µM.
The same measure for `COc1ccc2nc(C[C@@H]3C[C@@H](C(C)C)[C@H](CN)C=C3C)[nH]c2n1`: more than 100 µM; for `O=C(Nc1cc(CSCCO)ccn1)c1ccc(Cl)o1`: > 100 µM and 98.1 µM.
The same measure for `Nc1nccnc1CC1CCCN(Cc2ccnc3ccccc23)C1` (centres undefined): more than 100 µM.
The same measure for `O=C(c1cc2cc(F)ccc2[nH]1)N1CCC(Nc2ccc(F)cc2)CC1`: > 100 µM and 12.6 µM.
On to `COCC1CCN(C(=O)c2cc(-c3ccco3)nc3c(Cl)cccc23)C1` (centres undefined), for which the IC50 was 34.6 µM and > 100 µM.
Under `CC1(C)Cc2ccccc2-c2nc(NCCCO)[nH]c(=O)c21` stands 28.6 µM and 27.1 µM.
Under `COCc1nc(C(=O)OCC2CCN(c3ccccc3)C2)cs1` (centres undefined) stands > 100 µM and 16 µM.
The same measure for `CCCNC(=O)CCNc1cncc(-n2nc(C)cc2C)n1`: 28 µM and 22 µM; for `Cc1ccc(-c2ncc(C(=O)NCCNc3ncccn3)s2)c(C)c1`: 12 µM and 14.8 µM; for `CC(C)(C)C(=O)N1CCC(n2nc(-c3ccco3)ccc2=O)CC1`: more than 100 µM.
As to `COCc1nc(C(=O)N2CCCC2c2ccc(OC)cc2)cs1` (centres undefined), the IC50 was more than 100 µM.
Regarding `O=C(c1ccc(-n2cc(Br)cn2)cc1)N1CCN(c2cnccn2)CC1`, the IC50 is 2.63 µM and 3.37 µM.
Under `C[C@H](NC(=O)c1cccc(CCC(C)(C)O)c1)C(N)=O` stands more than 100 µM; under `CNC(=O)c1cnc(/C=C/c2cc(OC)cc(OC)c2)s1`, 29.1 µM and 11 µM.
Consider `CC(=O)c1ccc(N2CCCC(CO)(CCc3ccccc3)C2)nc1` (centres undefined), for which the IC50 is 72.2 µM and 69.8 µM.
The same measure for `Cc1ccccc1S(=O)(=O)N[C@@H]1CC[C@@H](N2CCNC(=O)C2)[C@@H]1O`: more than 100 µM; for `CCC(=O)NCC(=O)NCC(C)(C)c1cccc(Br)c1`: more than 100 µM; for `Cc1cc(C)c2cc(CNCc3cccnc3)c3nn(C)c(=O)n3c2c1`: 59.1 µM.
Under `Cc1ccc(CNC(=O)C2CCCCN2C(=O)OC(C)(C)C)cn1` (centres undefined) stands more than 100 µM; under `CC(=O)N1N=C(c2ccco2)OC1C(=O)NCC(C)C` (centres undefined), more than 100 µM; under `CC(C)c1nc(CN(C)C2CCN(CCNS(C)(=O)=O)C2)no1` (centres undefined), more than 100 µM.
The same measure for `COc1ccc(-c2ccnc3nc(N4CCCCC4)[nH]c(=O)c23)cc1`: 19.6 µM and 3.94 µM; for `CCC1(C)Cc2ccccc2-c2nc(NCCO)nc(O)c21` (centres undefined): 31.8 µM and 28.8 µM; for `CC(=O)N1CCCC1c1ccc(Br)cn1` (centres undefined): more than 100 µM.
`N#Cc1c(N2CCCN(C3CCOCC3)CC2)nc2ccccn12` gave an IC50 of more than 100 µM.

As a reminder, the IC50 is the concentration needed to halve the response being measured. Low values mean greater potency in that assay, high ones weaker potency in that assay.
